Assay results published in US7776912B2, “Acetals of nepetalic acid and method of preparation” (E.I. du Pont de Nemours and Company, priority 2006, dated 2010).

Test system: Aedes aegypti mosquitoes
Assay: in vitro Gupta box landing assay (insect repellency)
Type: in vivo
Settings: 1% (w/v) in IPA, mean of three replicates; for % Mean repellency: 25 μl applied to Baudruche membrane over bovine blood, landings recorded over 20 min, (C−T)/C×100 vs IPA control well; for Mean time to first landing / Mean number of total landings: 25 μl on membrane; for Mean time to first landing: about 250 female Aedes aegypti; for Mean number of total landings: recorded at 2 min intervals over 20 min
Method: The products of Examples 1-6 were evaluated for the insect repellency against Aedes aegypti mosquitoes in the in vitro Gupta box landing assay. In this method, a chamber contained 5 wells, each covered by a Baudruche (animal intestine) membrane. Each well was filled with bovine blood, containing sodium citrate (to prevent clotting) and ATP (72 mg ATP disodium salt per 26 ml of blood), and heated to 37° C. A volume of 25 μl of isopropyl alcohol(IPA) containing one test specimen, or DEET as a control, was applied to each membrane. The concentrations were all 1% w/v in IPA except where otherwise indicated. The control was a membrane surface treated with a 1% solution of DEET.
After 5 min, approximately 250 4-day-old female Aedes aegypti mosquitoes were introduced into the chamber. The number of mosquitoes probing the membranes for each treatment was recorded at 2 min intervals over 20 min. Each datum represents the mean of three replicate experiments.
C=the total number of landings on the IPA control well, and
T=the total number of landings on the test solution well.
The % mean repellencies at 1% (w/v) are depicted in Table 2 in addition to mean time to first landing, and mean number of total landings for the nepetalic acid acetals of Examples 1-6 and for DEET as a control.

Compound | % Mean repellency [%] | Mean time to first landing [min] | Mean number of total landings
CCN(CC)C(=O)c1cccc(C)c1 [DEET, N,N-diethyltoluamide, reference compound] | 68.60 | 3.5 | 17.7
COC1OC(=O)[C@H]2[C@H](CC[C@@H]2C)C1C (stereo partly drawn) [Example 1, (4aR,7S,7aR)-3-methoxy-4,7-dimethylhexahydrocyclopenta[c]pyran-1(3H)-one] | 79.30 | 3.2 | 12.2
CCOC1OC(=O)[C@H]2[C@H](CC[C@@H]2C)C1C (stereo partly drawn) [Example 2, (4aR,7S,7aR)-3-ethoxy-4,7-dimethylhexahydrocyclopenta[c]pyran-1(3H)-one] | 52.40 | 5.2 | 26.4
CCCOC1OC(=O)[C@H]2[C@H](CC[C@@H]2C)C1C (stereo partly drawn) [Example 3, (4aR,7S,7aR)-3-n-propoxy-4,7-dimethylhexahydrocyclopenta[c]pyran-1(3H)-one] | 89.10 | 11.6 | 5.2
CC(C)OC1OC(=O)[C@H]2[C@H](CC[C@@H]2C)C1C (stereo partly drawn) [Example 4, (4aR,7S,7aR)-3-isopropoxy-4,7-dimethylhexahydrocyclopenta[c]pyran-1(3H)-one] | 73.20 | 2.8 | 30.6
CCCCOC1OC(=O)[C@H]2[C@H](CC[C@@H]2C)C1C (stereo partly drawn) [Example 5, (4aR,7S,7aR)-3-n-butoxy-4,7-dimethylhexahydrocyclopenta[c]pyran-1(3H)-one] | 17.80 | 2.8 | 33.8
CC(C)COC1OC(=O)[C@H]2[C@H](CC[C@@H]2C)C1C (stereo partly drawn) [Example 6, (4aR,7S,7aR)-3-isobutoxy-4,7-dimethylhexahydrocyclopenta[c]pyran-1(3H)-one] | 20.40 | 2.0 | 91.6
